The test system of this test is Anopheles stephensi. The test is described as follows: Insecticidal activity against fourth instar larvae of Anopheles stephensi assessed as mortality after 24 hrs. In kind it is functional.

For two compounds, LC50 results are on record in ChEMBL document CHEMBL1150621, “Two new triterpenoids from Azadirachta indica and their insecticidal activity” (2002).

Molecules are shown by their SMILES. ≈ marks a conversion by molar mass, not a printed value.

The term LC50 denotes the concentration lethal to half of the exposed cells or organisms.

Take `CC(=O)O[C@@H]1[C@H](O)[C@H]2C(C)(C)C(=O)C=C[C@]2(C)[C@H]2CC[C@]3(C)C(=CC[C@H]3C3=COCC3)[C@]12C`: the LC50 turned out to be 60 µg/mL (≈ 132 µM). Consider `CC(=O)O[C@@H]1[C@H](O)[C@H]2C(C)(C)C(=O)C=C[C@]2(C)[C@H]2CC[C@@]3(C)CC(=O)C=C3[C@]12C`, for which the LC50 was found to be 43 µg/mL (≈ 107 µM).
